What was measured:
[1] = test system: lymphoblastoid cell line MZ2-EBV; assay: peptide sensitization chromium release assay: lysis by CTL 82/82 of peptide-incubated target cells; assay type: cell-based, human; conditions: chromium release after 4 hours; for sensitization of target cells to lysis by CTL 82/82: lymphoblastoid cell line from patient MZ2, various peptide concentrations
Method: (§1) The lysis assay employed was a chromium release assay following Herin et al., Int. J. Cancer, 39:390-396 (1987), which is incorporated herein by reference. The assay, however, is described herein. The target melanoma cells were grown in vitro, and then resuspended at 4×10^7 cells/ml in DMEM, supplemented with DMEM with 10 mM HEPES and 50% FCS, and incubated for 60 minutes at 37° C. with 200 μCi/ml of Na(^51Cr)O4. Labelled cells were washed three times with DMEM, supplemented with 10 mM HEPES. These were then resuspended in DMEM supplemented with 10 mM HEPES and 10% FCS, after which 100 μl aliquots containing 10^3 cells, were distributed into 96 well microplates. Samples of PBLs were added in 100 μl of the same medium, and assays were carried out in duplicate. Plates were centrifuged for 4 minutes at 100 g, and incubated for four hours at 37° C. in a 8% CO2 atmosphere.
(§2) Plates were centrifuged again, and 100 μl aliquots of supernatant were collected and counted. Percentage of ^51Cr release was calculated as follows: [formula]
where ER is observed, experimental ^51Cr release, SR is spontaneous release measured by incubating 10^3 labeled cells in 200 μl of medium alone, and MR is maximum release, obtained by adding 100 μl 0.3% Triton X-100 to target cells.
Several synthetic peptides were prepared on this basis. Peptides were synthesized on solid phase using F-moc for transient NH2-terminal protection as described by Atherton et al., J. Chem. Soc. Lond. Perkin Trans., 1:538-546 (1981) and characterized by mass spectrometry. All peptides were >90% pure as indicated by analytical HPLC. Lyophilized peptides were dissolved at 20 mg/ml in DMSO, diluted at 2 mg/ml in 10 mM acetic acid and stored at […]. Peptides were tested in a CTL stimulation assay with COS-7 cells transfected by HLA-Cw*1601 and incubated with the peptides. They were also tested by chromium release assay as previously described (Boon et al., J. Exp. Med., 152:1184-1193 (1980)). In this peptide sensitization assay, target cells were ^51Cr-labelled for one hour at 37° C. and washed extensively. 1000 target cells were then incubated in 96-well microplates in the presence of various concentrations of peptide for 30 minutes at 37° C. before CTL 82/82 cells were added. Chromium release was measured after 4 hours at 37° C.
The final concentration of peptides during the incubation of the target cells with the CTL is indicated. The arrow indicates the percentage of lysis of MZ2-MEL.43 cells. […] P1.HTR cells were transfected with HLA-Cw*1601 and were incubated with nonapeptide AARAVFLAL (SEQ ID NO: 3). […] Lysis of chromium-labelled cells was tested after 4 hours.

[2] = test system: P1.HTR cells transfected with HLA-Cw*1601; assay: chromium release assay: lysis by CTL clone 82/82 of P1.HTR transfected with HLA-Cw*1601 and incubated with peptide; assay type: cell-based, mouse; conditions: P1.HTR transfected with HLA-Cw*1601, 1 μM peptide, lysis tested after 4 hours
Method: as §1, §2
where ER is observed, experimental ^51Cr release, SR is spontaneous release measured by incubating 10^3 labeled cells in 200 μl of medium alone, and MR is maximum release, obtained by adding 100 μl 0.3% Triton X-100 to target cells. […]
Several synthetic peptides were prepared on this basis. […] Chromium release was measured after 4 hours at 37° C. […]

[3] = test system: cells transfected with HLA-Cw*1601; assay: CTL stimulation assay (TNF production) with HLA-Cw*1601-transfected cells incubated with peptide; assay type: cell-based; conditions: six CTL clones from patient MZ2; cells transfected with HLA-Cw*1601 and incubated with nonapeptide
Method: Cotransfectants were tested after 24 or 48 hours for their ability to stimulate the production of tumor necrosis factor (TNF) by CTLs (Traversari et al., Immunogenetics, 235:145-152 (1992)). 1500 CTLs were added in 100 μl of Iscove's medium (Gibco BRL) containing 10% human serum and 20 U/ml r-hu-IL-2 to microwells containing target cells. After 24 hours, the supernatant was collected and its TNF content was determined by testing its cytotoxic effect on cells of WEHI-164 clone 13 (Espevik et al., J. Immunol. Methods, 95:99-105 (1986)) in an MTT colorimetric assay (Hansen et al., J. Cancer, 39:390-396 (1989) and Traversari et al., supra).
Several synthetic peptides were prepared on this basis. Peptides were synthesized on solid phase using F-moc for transient NH2-terminal protection as described by Atherton et al., J. Chem. Soc. Lond. […] Chromium release was measured after 4 hours at 37° C.
From two MLTCs set up with different blood samples of patient MZ2, six CTL clones that recognized the BAGE/HLA-Cw*1601 antigen were derived. […] Vα and Vβ expression were determined as follows: Total RNA from the different CTL clones was prepared by using RNAzol*B (Cinna/Biotecx, Friendswood, Tex.). […] Specificity of TCR Vα and Vβ PCR amplification was assessed by Southern blotting and hybridization with ^32P-labelled Cα or Cβ oligonucleotides internal to the ones used for amplification.

Sequence	EC50 ([1]; MZ2-EBV targets incubated 30 minutes with peptide, CTL 82/82 added, read-out: peptide concentration giving half-maximal lysis) [nM]	sensitization of target cells to lysis by CTL 82/82 [1]	lysis by CTL 82/82 of peptide-incubated transfected cells [2]	response of CTL clones recognizing the BAGE/HLA-Cw*1601 antigen [3]
AARAVFLAL [Ala Ala Arg Ala Val Phe Leu Ala Leu, BAGE-encoded nonapeptide (amino acids 2-10) recognized in association with HLA-Cw*1601 by CTL 82/82]	30	Sensitization of a lymphoblastoid cell line from patient MZ2 to lysis by CTL 82/82 was observed	lysed by CTL 82/82	responded
ARAVFLALF		not able to sensitize target cells to lysis		
MAARAVFLA		not able to sensitize target cells to lysis		

— patent US6465184B1, “Isolated nucleic acid molecule encoding peptides which form complexes with MHC molecules HLA-Cw*1601 and uses thereof” (Ludwig Institute for Cancer Research, priority 1993, dated 2002)
